Test results from patent US11174462B2, “Microfluidic model of the blood brain barrier” (EMULATE, Inc., priority 2015, dated 2021).
“Also recorded” adds a separate entry of the source.

Legend:
[1] = tested on: BMECs seeded on a microfluidic device; test: Paracellular permeability assay with Dextran-FITC on chip; assay type: cell-based, human; conditions: TNFa exposure, FIG. 14B
Experimental: Albumin or Dextran conjugated to a fluorescent probe (e.g., FITC or TRITC) are frequently used to monitor changes in leakage, and thus barrier function. In this case, Dextran-FITC, a green fluorescent molecule of 4 KDa, or sodium fluorescein (a 0.3 KDa molecule), was added to the bottom (“blood side”) channel. Paracellular permeability was calculated by measuring the permeability of the fluorescent molecule on the Top (“brain side”) channel. […] FIG. 14B involves TNF-alpha exposure, but the readout is membrane permeability as measured by Dextran-FITC.

[2] = tested on: iBMEC barrier; test: TEER measurement of iBMEC barrier function on TEER chips under flow; assay type: cell-based, human; conditions: exposure of chips under flow to TNFa, FIG. 14A
Experimental: Cells were plated on tall channel PDMS chips equipped with incorporated gold electrodes on each channel (see FIG. 13A). Post seeding of BMECs, transendothelial electrical resistance was measured by connecting the electrodes to an EVOM2 voltohmmeter (see FIG. 13B). […] The “damaged” chip was a failure due to the TEER-Chips being a prototype.
Higher TEER values generally indicate a tighter barrier, which is typically desirable for a blood-brain barrier.

[3] = tested on: cell monolayers with tight junctions; conditions: passive paracellular diffusion only; cited from earlier work
[4] = tested on: neurons seeded in chip; assay type: cell-based, human

Molecule: TNFa
- effect on permeability to dextran-FITC through the semi-porous membrane [1]: increase in permeability
- effect on iBMEC barrier function (TEER) [2]: weakening of barrier function; also recorded: decrease in barrier function and TEER

Molecule: Lucifer Yellow
- permeability across cell monolayers (in words) [3]: low permeability

Molecule: NC1=N[C@H](O)[C@H]2[C@H]3O[C@]4(O)O[C@@H]([C@@H](O)[C@@]2(N1)[C@@H]4O)[C@]3(O)CO [TTX, tetrodotoxin]
- effect on neuronal calcium flux activity [4]: ablates this activity
